≈ marks a conversion by molar mass, not a printed value. Where two headings read alike, the source gives them in different places.
Assays:
Assay in all cases: MIC by agar dilution method
Type in all cases: cell-based
[1] = system: Escherichia coli OKI 35034
[2] = system: Helicobacter pylori 27604
[3] = system: Salmonella typhi OKI 10084; settings: Salmonella enterica, Salmonella typhi OKI 10084, agar dilution
[4] = system: Pseudomonas aeruginosa ATCC 27853; settings: ATCC27853
[5] = system: Streptococcus fecalis OKI 80171; settings: OKI80171, Streptococcus fecalis OKI 80171, agar dilution
[6] = system: Helicobacter pylori 27606
[7] = system: Staphylococcus epidermis OKI 110001; settings: OKI110001
[8] = system: Proteus vulgaris OKI 60002
[9] = system: Staphylococcus aureus ATCC 25923
[10] = Escherichia coli, OKI35034, Escherichia coli OKI 35034, agar dilution, read-out: MIC
[11] = Helicobacter pylori 27604, agar dilution, read-out: MIC
[12] = Helicobacter pylori 27606, agar dilution, read-out: MIC
[13] = Proteus vulgaris, OKI60002, Proteus vulgaris OKI 60002, agar dilution, read-out: MIC
[14] = ATCC25923, Staphylococcus aureus ATCC 25923, agar dilution, read-out: MIC

SMILES	MIC ([1]; Escherichia coli, OKI35034, Escherichia coli OKI 35034, agar dilution) [µg/mL]	MIC ([2]; Helicobacter pylori, 27604) [µg/mL]	MIC ([3]; read-out: MIC) [µg/mL]	MIC ([4]; Pseudomonas aeruginosa) [µg/mL]	MIC [5] [µg/mL]	MIC ([6]; Helicobacter pylori, 27606) [µg/mL]	MIC ([7]; Staphylococcus) [µg/mL]	MIC ([8]; Proteus vulgaris, OKI60002) [µg/mL]	MIC ([9]; ATCC25923) [µg/mL]	MIC [1, 10] [µg/mL]	MIC [2, 11] [µg/mL]	MIC ([3]; TYPHI) [µg/mL]	MIC [6, 12] [µg/mL]	MIC [8, 13] [µg/mL]	MIC [9, 14] [µg/mL]	MIC ([1]; Escherichia coli OKI 35034, agar dilution) [µg/mL]	MIC ([4]; Pseudomonas aeruginosa ATCC 27853, agar dilution, read-out: MIC) [µg/mL]	MIC ([7]; Staphylococcus epidermis OKI 110001, agar dilution, read-out: MIC) [µg/mL]	MIC ([8]; Proteus vulgaris OKI 60002, agar dilution) [µg/mL]
CCOP(=O)(OCC)C(CSCC(=O)OCOC(=O)N1CCN(c2cc3c(cc2F)c(=O)c(C(=O)O)cn3CC)CC1)P(=O)(OCC)OCC [Example 1 B, 7-(4-((2,2-Bis-(diethoxyphosphoryl)-ethylsulfanyl)-acetoxymethoxycarbonyl)-piperazin-1-yl)-1-ethyl-6-fluoro-4-oxo-1,4-dihydroquinoline-3-carboxylic acid]	≥ 0.39	6.25 (≈ 8.14 µM)	≥ 0.78	12.5 (≈ 16.3 µM)	12.5 (≈ 16.3 µM)	3.12 (≈ 4.06 µM)	1.56 (≈ 2.03 µM)	1.56 (≈ 2.03 µM)	6.25 (≈ 8.14 µM)	–	–	–	–	–	–	–	–	–	–
CCn1cc(C(=O)O)c(=O)c2cc(F)c(N3CCNCC3)cc21 [Norfloxacin, norfloxacin]	–	–	–	12.5 (≈ 39.1 µM)	12.5 (≈ 39.1 µM)	–	1.56 (≈ 4.89 µM)	–	–	≥ 0.39	6.25 (≈ 19.6 µM)	≥ 0.39	6.25 (≈ 19.6 µM)	0.78 (≈ 2.44 µM)	6.25 (≈ 19.6 µM)	–	–	–	–
CC1(C)S[C@@H]2[C@H](NC(=O)[C@H](N)c3ccc(O)cc3)C(=O)N2[C@H]1C(=O)O [Amoxicillin, amoxicillin]	–	–	–	–	–	–	–	–	–	25 (≈ 68.4 µM)	≥ 0.39	–	≥ 0.39	50 (≈ 137 µM)	≥ 0.39	50 (≈ 137 µM)	> 100	≥ 0.39	100 (≈ 274 µM)

— patent US6333424A, “Therapeutic derivatives of diphosphonates” (priority 1999, dated 2001)
